Tests used:
[1] = Particle size and PDI by dynamic light scattering; type: physicochemical; conditions: Table 2; for Particle size (nm): LNP formulation with mRNA; for PDI: polydispersity value
How it was run: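 Lipid nanoparticle solution (about 0.04 mg/mL mRNA) diluted in ultrapure water and particle size measured by dynamic light scattering on a Malvern instrument. Sample then further diluted with water for potential measurement.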

Delta-S protein = assay: In vivo immunization with Delta Spike mRNA LNP, serum ELISA for specific antibody; set-up: species or system mice; conditions: serum after second administration
Experimental: Lipid nanoparticles encapsulating the nucleic acid drugs were prepared according to step 2. The mRNA was replaced with Delta Spike full length mRNA (Shanghai Zhaowei Science and Technology Development Co., Ltd.) and then administered to the mice at a dose of 5 μg per mouse, and on the 14th day after the first immunization, the whole blood of the mice was collected by canthus sampling, and the drug administration was repeated for the second immunization. On the 14th day after the second immunization, the whole blood was collected from mice by canthus sampling. The whole blood was centrifuged at 5000 rcf for 5 mn, and the supernatant was centrifuged at 10000 rcf for 5 min to obtain the serum, which was aliquated into serial tubes and stored in the refrigerator at −20° C.
• 9.2.1 Coating: Add 100 μL of 0.2 μg/100 μL Delta-S protein (Novoprotein Scientific Inc.) dilution solution to each well, and leave it in the refrigerator at 4° C. overnight. • 9.2.2 Washing: Add 200 μL of PBST (PBS buffer solution containing 0.05% Tween-20 at pH 7.4) to each well and wash three times. • 9.2.3 Blocking: Add 200 μL of 5% (w/v) BSA-PBS solution (BSA bovine serum albumin, Bioss Biotechnology Co., Ltd.) to each well, and shake for 2 h at 50 rcf at room temperature using a shaker. • 9.2.4 Washing: Add 200 μL of PBST to each well to wash once. • 9.2.5 Adding samples: Add 100 μL of serum diluted 200 times with PBS (0.5 μL of serum) to each well (for the ELISA titer assay, serum diluted 200 times, 800 times, 3200 times, 12800 times, 51200 times, 204800 times), and shake at room temperature for 2 h at 50 rcf using a shaker. • 9.2.6 Washing: Add 200 μL of PBST into each well for three times. • 9.2.7 Adding detection antibody: Add 100 μL of HRP-labeled goat anti-mouse IgG detection antibody (0.1 μL of antibody master batch) (Sangon Biotech (Shanghai) Co., Ltd.) diluted 1000-fold into each well, and shake at 50 rcf for 1 h at room temperature using a shaker. • 9.2.8 Washing: Add 200 μL of PBST to each well and wash three times. • 9.2.9 Adding TMB (Beijing Solarbio Science & Technology Co., Ltd.): Add 50 μL of TMB mixture with the volume ratio of liquid A:liquid B of 1:1 to each well, and react for 5 mn (ELISA of blood sample I), 7 min 58 sec (ELISA of blood sample II), and react for about 5 min (ELISA titer of blood sample II). • 9.2.10 Adding phosphate (Aladdin Reagent (Shanghai) Co., Ltd.): add 50 μL of 1 mol/L phosphate per well to terminate the reaction. • 9.2.11 Detection: Use multi-function plate reader for detection. 9.3. Neutralization Antibody Levels Detected by Pseudovirus Neutralization Assay • 9.3.1 Cell seeding: 293T-ACE2 cells (Fubio (Suzhou) Biomedical Technology Co., Ltd.) were inoculated with 1×10^5 cells in each well of a 48-well plate at a concentration of 1×10^5 cells in 300 μL of DMEM medium (containing 10% heat-inactivated FBS without bispecific antibody), the 48-well plate was labeled with information such as “number, cell type, number of generations, medium type, date and name”, and then the cells were cultured in a cell culture incubator at 37° C. with 5% CO2 for 18 hours. • 9.3.2 Before the pseudovirus transfection operation, prepare an ice box, re-dissolve the serum to be used on ice, thaw on ice the virus from the −25° C. refrigerator. After thawing, the serum and pseudovirus were flicked homogenously and centrifuged with a palm centrifuge. • 9.3.3 Examine the neutralization antibody with serum diluted in different ratios: use complete culture medium to dilute the pseudovirus (Fubio (Suzhou) Biomedical Technology Co., Ltd.) and mouse serum respectively, mix them well, and then dilute them 40-fold, 100-fold, 250-fold and 625-fold according to the final concentration of the cells of incubation. […]

mice = assay: In vivo delivery of FLuc-mRNA lipid nanoparticle preparations in mice (IVIS imaging); set-up: In vivo IVIS / In vivo IVIS (liver) / In vivo IVIS (spleen): unit not given here; conditions: Table 2; for In vivo IVIS: whole body scan; for in vivo delivery efficiency as compared to the benchmark compound SM102: certain formulations
How it was run: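 FLuc-mRNA LNPs given intramuscularly into thigh rectus femoris or intravenously via tail vein, about 75 μL per mouse, 3 mice. D-Luciferin (200 μL, 15 mg/mL) injected i.p. 10–15 min before IVIS imaging at set times after dosing.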

[2] = molar ratio 1.00:7.00:57.00:35.00, N/P 35
[3] = molar ratio 1.40:11.15:38.95:48.50, N/P 65
[4] = molar ratio 2.00:16.00:22.00:60.00, N/P 35
[5] = IV, molar ratio DMG-PEG2000:DSPC:Chol:Lipid and N/P

| SMILES | Particle size (nm) [1, 2] [nm] | Particle size (nm) [1, 3] [nm] | Particle size (nm) [1, 4] [nm] | PDI [1, 2] | PDI [1, 3] | PDI [1, 4] | OD 450 nm-630 nm (Delta-S protein; IV) | In vivo IVIS (mice; IM) | in vivo delivery efficiency as compared to the benchmark compound SM102 (mice) | Particle size (nm) [1] [nm] | PDI [1] | OD 450 nm-630 nm (Delta-S protein; IM) | In vivo IVIS (mice; [5]) |
| --- | --- | --- | --- | --- | --- | --- | --- | --- | --- | --- | --- | --- | --- |
| CCCCCCOCOCCCCCCOC(=O)C(O)CN(CCN1CCN(CCN(CC(O)C(=O)OCCCCCCOCOCCCCCC)CC(O)C(=O)OCCCCCCOCOCCCCCC)CC1)CCN(CC(O)C(=O)OCCCCCCOCOCCCCCC)CC(O)C(=O)OCCCCCCOCOCCCCCC (stereo not shown) [Compound L0200] | 106.93 ± 0.71 | 117.90 ± 0.36 | 104.50 ± 0.26 | 0.06 ± 0.01 | 0.08 ± 0.02 | 0.12 ± 0.01 | 1.61 | 3.08 × 10^5 | superior in vivo delivery efficiency |  |  |  |  |
| CCCCCCC(CCCCCC)C(=O)OCCCCCCOC(=O)C(O)CN(CCN1CCN(CCN(CC(O)C(=O)OCCCCCCOC(=O)C(CCCCCC)CCCCCC)CC(O)C(=O)OCCCCCCOC(=O)C(CCCCCC)CCCCCC)CC1)CCN(CC(O)C(=O)OCCCCCCOC(=O)C(CCCCCC)CCCCCC)CC(O)C(=O)OCCCCCCOC(=O)C(CCCCCC)CCCCCC (stereo not shown) [Compound L0203] |  |  |  |  |  |  |  | 8.01 × 10^7 | superior in vivo delivery efficiency | 126.73 ± 1.50 | 0.06 ± 0.01 | 1.72 | 3.89 × 10^8 |
| CCCCCCCCCCCOC(=O)CCCCCN(CCO)CCCCCCCC(=O)OC(CCCCCCCC)CCCCCCCC [SM-102, reference compound] |  |  |  |  |  |  |  |  |  | 81.71 ± 0.49 | 0.11 ± 0.01 | 1.64 | 1.40 × 10^9 |

Source: patent publication US12599560B2, “Lipids and lipid nanoparticle formulations” (Longuide Biopharma Corporation, priority 2023, dated 2026)
